In the supplement of paper PMC6965134:
± gives the standard deviation of the averaged measurements.

Experiment: TIMS collisional cross section (CCS, N2) of the lipid ion; higher = larger ion cross section
Conditions: ionization mode: positive, one isomer drawn

Row | SMILES | TIMS collisional cross section (sample type: HeLa) | TIMS collisional cross section (sample type: Liver) | TIMS collisional cross section (sample type: plasma)
1 | CCCCCCCCCCCCCCCCCCCCC(=O)OC[C@@H](COC(=O)CCCCCCCCCCCCCCC)OC(=O)CCCCCCCCCCCCCCCCCCC [TG 16:0_20:0_21:0] (ion (formula + adduct): [C60H116O6+NH4] 1+) | 339.7 Å² | – | –
2 | CCCCCCCCCCCCCCC(=O)OC[C@H](COP(=O)(O)OC[C@H](N)C(=O)O)OC(=O)CCCCCCCCCCCCC [PS 15:0_14:0] (ion (formula + adduct): [C35H68NO10P+Na] 1+) | – | 270.3 Å² | –
3 | CCCCCCCCCCCCCCCCCC(=O)OC[C@@H](O)COP(=O)(O)OC[C@H](N)C(=O)O [LPS 18:0] (ion (formula + adduct): [C24H48NO9P+H] 1+) | 229.2 Å² | 229.2 Å² | –
4 | CCCCCCCCCCCCCCCCCCCCCC(=O)OC[C@@H](COC(=O)CCCCCCCCCCCCCCC)OC(=O)CCCCCCCCCCCCCCCCC [TG 16:0_18:0_22:0] (ion (formula + adduct): [C59H114O6+NH4] 1+) | 337.8 Å² | 338.3 Å² | 337.55 ± 0.21 Å²
5 | CCCC/C=C\CCCCCCCC(=O)O[C@@H](COC(=O)CCCCCCC/C=C\CCCCCC)COC(=O)CCCCCCCCCCCC [TG 13:0_14:1_16:1] (ion (formula + adduct): [C46H84O6+NH4] 1+) | 293.9 Å² | 291.9 Å² | –
6 | CCCCCCCC/C=C\CCCCCCCC(=O)OC[C@@H](COC(=O)CCCCCCCCCCCCCCCC)OC(=O)CCCCCCC/C=C\CCCCCCCC [TG 17:0_18:1_18:1] (ion (formula + adduct): [C56H104O6+NH4] 1+) | – | – | 325.5 Å²
7 | CCCCCCCC/C=C\CCCCCCCC(=O)O[C@H](COC(=O)CCCCCCCCCCCCCCC)COP(=O)([O-])OCC[N+](C)(C)C [PC 16:0_18:1] (ion (formula + adduct): [C42H82NO8P+H] 1+) | 288.37 ± 0.9 Å² | – | 287.7 Å²
8 | CC/C=C\C/C=C\C/C=C\C/C=C\C/C=C\C/C=C\CCC(=O)OC[C@@H](COC(=O)CCCCCCC/C=C\C/C=C\CCCCC)OC(=O)CCC/C=C\C/C=C\C/C=C\C/C=C\CCCCC [TG 18:2_20:4_22:6] (ion (formula + adduct): [C63H98O6+NH4] 1+) | – | 330.4 Å² | –
9 | CCCCC/C=C\CCCCCCCC(=O)OC[C@H](COC(=O)CCCCCCC/C=C\CCCCCCCC)OC(=O)CCCCCCC/C=C\CCCCCC [TG 15:1_16:1_18:1] (ion (formula + adduct): [C52H94O6+NH4] 1+) | 310.8 Å² | 312.2 Å² | –
10 | CCCCCCCCCCCCCCCCCCCCCC(=O)OC[C@@H](COC(=O)CCCCCCCCCCCCCCCCC)OC(=O)CCCCCCCCCCCCCCCCCCC [TG 18:0_20:0_22:0] (ion (formula + adduct): [C63H122O6+NH4] 1+) | – | 349.3 Å² | 349.1 Å²
11 | CCCCCCCC/C=C\CCCCCCCC(=O)N[C@@H](COP(=O)([O-])OCC[N+](C)(C)C)[C@H](O)/C=C/CCCCCCCCCCCCC [SM d18:1@_18:1@] (ion (formula + adduct): [C41H81N2O6P+H] 1+) | – | – | 287.5 Å²
12 | CCCCC/C=C\C/C=C\C/C=C\C/C=C\CCCCCC(=O)O[C@@H](CO)COC(=O)CCCCCCC/C=C\C/C=C\CCCCC [DG 18:2_22:4_0:0] (ion (formula + adduct): [C43H72O5+NH4] 1+) | – | 270.8 Å² | –
13 | CCCCCCCCCCCCCCCCCC(=O)O[C@H](CO)COP(=O)([O-])OCC[N+](C)(C)C [LPC 18:0] (ion (formula + adduct): [C26H54NO7P+H] 1+) | 237.1 Å² | – | 238.4 Å²
14 | CCCCC/C=C\C/C=C\C/C=C\C/C=C\CCCC(=O)O[C@H](COC(=O)CCCCCCCCC/C=C\CCCCCCCC)COP(=O)(O)OCCN [PE 20:1_20:4] (ion (formula + adduct): [C45H80NO8P+H] 1+) | – | 287.2 Å² | –
15 | CCCCC/C=C\C/C=C\C/C=C\CCCCCCC(=O)OC[C@@H](O)COP(=O)(O)OCCN [LPE 20:3] (ion (formula + adduct): [C25H46NO7P+H] 1+) | 216.8 Å² | 217.2 Å² | 217.3 Å²
16 | CC/C=C\C/C=C\C/C=C\CCCCCCCC(=O)OC[C@@H](COC(=O)CCCCCCC/C=C\CCCCCCC)OC(=O)CCCCCCC/C=C\C/C=C\CCCCC [TG 17:1_18:2_18:3] (ion (formula + adduct): [C56H96O6+NH4] 1+) | – | – | 317.2 Å²

Row | SMILES | TIMS collisional cross section (sample type: HeLa) | TIMS collisional cross section (sample type: Liver) | TIMS collisional cross section (sample type: plasma)
17 | CC/C=C\C/C=C\C/C=C\C/C=C\C/C=C\CCCCCC(=O)OC[C@@H](COC(=O)CCCCCCC/C=C\CCCCCCCC)OC(=O)CCCCCCCCC/C=C\CCCCCCCC [TG 18:1_20:1_22:5] (ion (formula + adduct): [C63H108O6+NH4] 1+) | – | 337.9 Å² | –
18 | CCCCCC/C=C\CCCCCCCC(=O)OC[C@H](COC(=O)CCCCCCCCC/C=C\CCCCCCCC)OC(=O)CCCCCCC/C=C\CCCCCCCC [TG 16:1_18:1_20:1] (ion (formula + adduct): [C57H104O6+NH4] 1+) | 326 Å² | 327 Å² | –
19 | CC/C=C\C/C=C\C/C=C\C/C=C\C/C=C\C/C=C\CCC(=O)OC[C@H](COP(=O)(O)OCCN)OC(=O)CCCCCCC/C=C\CCCCCCCC [PE 22:6_18:1@] (ion (formula + adduct): [C45H76NO8P+H] 1+) | 281.9 Å² | – | –
20 | CCCCCC/C=C\CCCCCCCCCC(=O)O[C@H](CO)COP(=O)(O)OCCN [LPE 18:1] (ion (formula + adduct): [C23H46NO7P+H] 1+) | 218.1 Å² | 215.4 Å² | –
21 | CCCCC/C=C\C=C\CCCCCCCCC(=O)O[C@H](COC(=O)CCCCCCCCCCCCCCC)COP(=O)([O-])OCC[N+](C)(C)C [PC 16:0_18:2] (ion (formula + adduct): [C42H80NO8P+H] 1+) | – | 286.3 Å² | 282.45 ± 2.8 Å²
22 | CCCCC/C=C\C/C=C\C/C=C\C/C=C\CCCC(=O)O[C@H](COC(=O)CCCCCCCCCCCCCCCCC)COP(=O)([O-])OCC[N+](C)(C)C [PC 18:0@_20:4] (ion (formula + adduct): [C46H84NO8P+H] 1+) | – | – | 296 Å²
23 | CC/C=C\C/C=C\C/C=C\CCCCCCCC(=O)OC[C@@H](COC(=O)CCCCCCC/C=C\CCCCCC)OC(=O)CCCCCCC/C=C\C/C=C\CCCCC [TG 16:1_18:2_18:3] (ion (formula + adduct): [C55H94O6+NH4] 1+) | – | 312.8 Å² | 314.1 Å²
24 | CC/C=C\C/C=C\C/C=C\C/C=C\C/C=C\CCCC(=O)OC[C@@H](COC(=O)CCCCCCC/C=C\C/C=C\CCCCC)OC(=O)CCCCCCC/C=C\C/C=C\C/C=C\CC [TG 18:2_18:3_20:5] (ion (formula + adduct): [C59H94O6+NH4] 1+) | – | 319.5 Å² | –
25 | CCCCCCCCCCCCC/C=C/[C@@H](O)[C@H](CO[C@@H]1OC(CO)[C@@H](O[C@@H]2OC(CO)[C@H](O)[C@H](O)C2O)[C@H](O)C1O)NC(=O)CCCCCCCCCCCCC (some centres not stated) [GlcCer d18:1_14:0@] (ion (formula + adduct): [C44H83NO13+H] 1+) | 297.2 Å² | – | –
26 | CCCCCCCCCCCCC/C=C/C=C/C(=O)OC[C@@H](O)COP(=O)([O-])OCC[N+](C)(C)C (ion (formula + adduct): [C26H50NO7P+H] 1+) | 228.2 Å² | – | 228.1 ± 0.42 Å²
27 | CCCCC/C=C\C/C=C\CCCCCCCC(=O)OC[C@H](COP(=O)(O)OCCN)OC(=O)CCCCCCC/C=C\CCCCCC [PE 18:2@_16:1] (ion (formula + adduct): [C39H72NO8P+H] 1+) | 270 Å² | – | –
28 | CCCCCCCCCCCCCCCCCCCC(=O)OC[C@@H](COC(=O)CCCCCCCCCCCCC)OC(=O)CCCCCCCCCCCCCCC [TG 14:0_16:0_20:0] (ion (formula + adduct): [C53H102O6+NH4] 1+) | 320.6 Å² | – | –
29 | CCCCC/C=C\C/C=C\C/C=C\C/C=C\CCCC(=O)O[C@H](COC(=O)CCCCCCC/C=C\CCCCCC)COP(=O)([O-])OCC[N+](C)(C)C [PC 16:1@_20:4] (ion (formula + adduct): [C44H78NO8P+H] 1+) | – | – | 285.8 Å²
30 | CCCCC/C=C\C/C=C\C/C=C\C/C=C\C/C=C\CCC(=O)O[C@H](COC(=O)CCCCCCCCCCCCCCC)COP(=O)([O-])OCC[N+](C)(C)C [PC 16:0_22:5@] (ion (formula + adduct): [C46H82NO8P+H] 1+) | – | 292.7 Å² | –
31 | CCCCC/C=C\C/C=C\C/C=C\C/C=C\CCCCCC(=O)O[C@H](CO/C=C\CCCCCCCCCCCCCCCC)COP(=O)([O-])OCC[N+](C)(C)C [PC P- 18:0@_22:4] (ion (formula + adduct): [C48H88NO7P+H] 1+) | – | 300.4 Å² | –
32 | CC(C)CCC[C@@H](C)[C@H]1CC[C@H]2C3=CC[C@H]4[C@](C)(C=O)[C@@H](O)CC[C@]4(C)[C@H]3CC[C@]12C (ion (formula + adduct): [C29H48O2+H] 1+) | – | – | 219.5 Å²
